Test results published in patent publication US10227329B2, “Compounds useful for treating disorders related to RET” (BLUEPRINT MEDICINES CORPORATION, priority 2016, dated 2019).

Experiments:
wild type RET = wild type RET (Homo sapiens (Human), UniProt P07949); assay: RET Wild Type Assay at KM (Caliper electrophoretic mobility shift); type: biochemical; details: 25 μM ATP (KM)
RET V804L = RET V804L (Homo sapiens (Human), UniProt P07949, V804L); assay: RET V804L Gatekeeper Mutant Assay at KM (Caliper electrophoretic mobility shift); type: biochemical; details: 10 μM ATP (KM), read-out: V480L Mutant
Chain of RET V804L (P07949 29-1114 V804L): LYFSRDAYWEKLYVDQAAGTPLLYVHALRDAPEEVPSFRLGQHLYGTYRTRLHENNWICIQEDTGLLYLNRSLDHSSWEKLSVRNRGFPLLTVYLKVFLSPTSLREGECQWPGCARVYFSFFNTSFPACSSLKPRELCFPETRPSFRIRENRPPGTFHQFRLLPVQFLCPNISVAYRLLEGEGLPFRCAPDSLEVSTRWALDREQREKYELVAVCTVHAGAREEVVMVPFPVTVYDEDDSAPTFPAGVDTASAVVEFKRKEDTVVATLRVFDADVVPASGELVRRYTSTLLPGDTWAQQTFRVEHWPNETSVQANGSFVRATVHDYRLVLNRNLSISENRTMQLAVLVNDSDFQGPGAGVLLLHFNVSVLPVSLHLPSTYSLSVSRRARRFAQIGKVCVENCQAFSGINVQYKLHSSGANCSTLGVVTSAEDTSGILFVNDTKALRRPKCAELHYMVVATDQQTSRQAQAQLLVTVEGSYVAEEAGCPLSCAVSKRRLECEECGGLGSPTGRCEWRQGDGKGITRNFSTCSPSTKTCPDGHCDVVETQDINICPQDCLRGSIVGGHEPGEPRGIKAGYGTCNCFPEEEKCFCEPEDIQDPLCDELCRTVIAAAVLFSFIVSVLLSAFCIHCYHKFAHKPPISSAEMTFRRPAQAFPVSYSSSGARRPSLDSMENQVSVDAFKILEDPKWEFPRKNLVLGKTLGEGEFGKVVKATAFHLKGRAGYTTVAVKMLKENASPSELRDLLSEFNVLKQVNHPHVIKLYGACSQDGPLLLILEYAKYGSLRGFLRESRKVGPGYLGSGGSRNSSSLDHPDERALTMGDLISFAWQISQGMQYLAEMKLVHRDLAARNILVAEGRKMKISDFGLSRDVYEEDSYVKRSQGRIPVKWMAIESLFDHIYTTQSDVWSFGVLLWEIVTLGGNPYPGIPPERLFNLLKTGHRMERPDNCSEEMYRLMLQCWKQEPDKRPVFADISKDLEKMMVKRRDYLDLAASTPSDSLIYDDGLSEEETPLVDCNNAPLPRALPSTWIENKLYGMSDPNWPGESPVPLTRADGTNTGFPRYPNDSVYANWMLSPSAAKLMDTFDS

Chain of wild type RET (P07949 29-1114): as the sequence (P07949 29-1114 V804L) above, with L776V counted along it

| IC50 (wild type RET) [µM] | IC50 (RET V804L) [µM] | SMILES |
| --- | --- | --- |
| 0.01 to 0.1 | < 0.01 | Cc1cc(Nc2cc(C)[nH]n2)nc(N2CC(O)(C(=O)NCc3ccc(-n4cccn4)nc3)C2)c1 [Compound 110] |
| < 0.01 | < 0.01 | Cc1cc(Nc2cc(C)[nH]n2)nc(N2CCC(O)(C(=O)NCc3ccc(-n4nc(C)cc4C)nc3)CC2)c1 [Compound 182] |
| < 0.01 | < 0.01 | Cc1cc(Nc2cc(C)[nH]n2)nc(N2CC(F)(C(=O)NCc3ccc(-n4cc(F)cn4)nc3)C2)n1 [Compound 124] |
| < 0.01 | < 0.01 | COC1(C(=O)N[C@@H](C)c2ccc(-n3cc(F)cn3)nc2)CN(c2nccc(Nc3cc(C)[nH]n3)n2)C1 [Compound 149] |
| < 0.01 | < 0.01 | COC1(C(=O)NCc2ccc(-n3cc(F)cn3)nc2)CN(c2nc(Nc3cc(C)[nH]n3)cc(C)c2F)C1 [Compound 174] |
| > 0.1 | 0.01 to 0.1 | COC1(C(=O)NCc2ccc(N3CC[C@@H](F)C3)nc2)CN(c2nc(C)cc(Nc3cc(C)[nH]n3)n2)C1 [Compound 155] |
| 0.01 to 0.1 | 0.01 to 0.1 | COC1(C(=O)NCc2ccc(N3CCC(F)(F)C3)nc2)CN(c2nc(C)cc(Nc3cc(C)[nH]n3)n2)C1 [Compound 176] |
| < 0.01 | < 0.01 | COC1(C(=O)NCc2ccc(-n3cccn3)nc2)CCN(c2nc(C)cc(Nc3cc(C)[nH]n3)n2)CC1 [Compound 161, N-((6-(1H-pyrazol-1-yl)pyridin-3-yl)methyl)-4-methoxy-1-(4-methyl-6-((5-methyl-1H-pyrazol-3-yl)amino)pyrimidin-2-yl)piperidine-4-carboxamide] |
| < 0.01 | < 0.01 | COC1(C(=O)N(C)Cc2ccc(-n3cccn3)nc2)CCN(c2nc(C)cc(Nc3cc(C)[nH]n3)n2)CC1 [Compound 185] |
| < 0.01 | < 0.01 | CCC1(C(=O)N[C@@H](C)c2ccc(-n3cccn3)nc2)CN(c2nc(C)cc(Nc3cc(C)[nH]n3)n2)C1 [Compound 130] |
| < 0.01 | < 0.01 | Cc1cc(Nc2cc(C)[nH]n2)nc(N2CC(C)(C(=O)NCc3ccc(-n4cc(F)cn4)nc3)C2)c1 [Compound 120] |
| < 0.01 | < 0.01 | COC1(C(=O)N[C@@H](C)c2ccc(-n3cc(F)cn3)nc2)CN(c2cc(C)nc(Nc3cc(C)[nH]n3)n2)C1 [Compound 170] |
| < 0.01 | < 0.01 | COC1(C(=O)N[C@@H](C)c2ccc(-n3cccn3)nc2)CN(c2nc(Nc3cc(C)[nH]n3)cc(C)c2F)C1 [Compound 168] |
| < 0.01 | < 0.01 | Cc1cc(Nc2cc(C)[nH]n2)nc(N2CCC(C(=O)NCc3ccc(-n4cccn4)nc3)CC2)n1 [Compound 118] |
| < 0.01 | < 0.01 | COC1(C(=O)N[C@@H](C)c2ccc(-n3cccn3)nc2)CCN(c2nc(Nc3cc(C)[nH]n3)cc(C)c2C#N)CC1 [Compound 222] |
| < 0.01 | < 0.01 | Cc1cc(Nc2cc(C)[nH]n2)nc(N2CCC(O)(C(=O)N(C)Cc3ccc(-n4cccn4)nc3)CC2)n1 [Compound 162] |
| < 0.01 | < 0.01 | COC1(C(=O)N[C@@H](C)c2ccc(-n3cc(F)cn3)nc2)CN(c2nc(Nc3cc(C)[nH]n3)cc(C)c2F)C1 [Compound 202] |
| 0.01 to 0.1 | 0.01 to 0.1 | COC1(C(=O)NCc2ccc(-n3cc(F)cn3)nn2)CN(c2nc(C)cc(Nc3cc(C)[nH]n3)n2)C1 [Compound 150] |
| < 0.01 | < 0.01 | Cc1cc(Nc2cc(C)[nH]n2)nc(N2CC[C@H](C(=O)NCc3ccc(-n4cccn4)nc3)[C@@H](O)C2)c1 [Compound 132] |
| < 0.01 | < 0.01 | COC1(C(=O)N[C@@H](C)c2ccc(-n3cc(F)cn3)nc2)CCN(c2cc(C)cc(Nc3cc(C)[nH]n3)n2)CC1 [Compound 216] |
| < 0.01 | < 0.01 | Cc1cc(Nc2cc(C)[nH]n2)nc(N2CC(C#N)(C(=O)N[C@@H](C)c3ccc(-n4cc(F)cn4)nc3)C2)n1 [Compound 159] |
| < 0.01 | < 0.01 | COCCC1(C(=O)NCc2ccc(-n3cccn3)nc2)CCN(c2nc(C)cc(Nc3cc(C)[nH]n3)n2)CC1 [Compound 213] |
| 0.01 to 0.1 | 0.01 to 0.1 | COC1(C(=O)NCc2ccc(-n3cc(C(F)F)cn3)nc2)CN(c2nc(C)cc(Nc3cc(C)[nH]n3)n2)C1 [Compound 203] |
| < 0.01 | < 0.01 | Cc1cc(Nc2cc(C)[nH]n2)nc(N2CCC(C)(C(=O)N[C@@H](C)c3ccc(-n4cc(F)cn4)nc3)CC2)c1 [Compound 188] |
| > 0.1 | > 0.1 | COC1(C(=O)NCc2ccc(N3CC(F)C3)nc2)CN(c2nc(C)cc(Nc3cc(C)[nH]n3)n2)C1 [Compound 125] |
| < 0.01 | < 0.01 | COC1(C(=O)NCc2ccc(-n3cccn3)nc2)CCN(c2cc(C)cc(Nc3cc(C)[nH]n3)n2)CC1 [Compound 160, N-((6-(1H-pyrazol-1-yl)pyridin-3-yl)methyl)-4-methoxy-1-(4-methyl-6-(3-methyl-1H-pyrazol-5-ylamino)pyridin-2-yl)piperidine-4-carboxamide] |
| < 0.01 | < 0.01 | CCC1(C(=O)NCc2ccc(-n3cccn3)nc2)CCN(c2nc(C)cc(Nc3cc(C)[nH]n3)n2)CC1 [Compound 158] |

| IC50 (wild type RET) [µM] | IC50 (RET V804L) [µM] | SMILES |
| --- | --- | --- |
| < 0.01 | < 0.01 | Cc1cc(Nc2cc(C)[nH]n2)nc(N2CCC(O)(C(=O)NCc3ccc(-n4cccn4)nc3)CC2)c1 [Compound 131] |
| < 0.01 | < 0.01 | COC1(C(=O)NCc2ccc(-n3cc(F)cn3)nc2)CN(c2nc(Nc3cc(C)[nH]n3)cc(C)c2C#N)C1 [Compound 184] |
| < 0.01 | < 0.01 | Cc1cc(Nc2cc(C)[nH]n2)nc(N2CC(C(=O)N[C@@H](C)c3ccc(-n4cc(F)cn4)nc3)C2)c1 [Compound 119] |
| < 0.01 | < 0.01 | Cc1cc(Nc2cc(C)[nH]n2)nc(N2CCC(OCC(F)(F)F)(C(=O)NCc3ccc(-n4cccn4)nc3)CC2)n1 [Compound 228] |
| < 0.01 | < 0.01 | COC1(C(=O)N[C@@H](C)c2ccc(-n3cc(F)cn3)nc2)CN(c2nc(Nc3cc(C)[nH]n3)cc(C)c2C#N)C1 [Compound 212] |
| 0.01 to 0.1 | 0.01 to 0.1 | COC1(C(=O)NCc2ccc(-n3nc(C)cc3C)nc2)CN(c2nc(C)cc(Nc3cc(C)[nH]n3)n2)C1 [Compound 163] |
| < 0.01 | < 0.01 | COC1(C(=O)NCc2ccc(-n3ccc(C4CC4)n3)nc2)CN(c2cc(C)cc(Nc3cc(C)[nH]n3)n2)C1 [Compound 177] |
| < 0.01 | < 0.01 | Cc1cc(Nc2cc(C)[nH]n2)nc(N2CCC(O)(C(=O)NCc3ccc(-n4cccn4)nc3)CC2)n1 [Compound 136, N-((6-(1H-pyrazol-1-yl)pyridin-3-yl)methyl)-4-hydroxy-1-(4-methyl-6-(3-methyl-1H-pyrazol-5-ylamino)pyrimidin-2-yl)piperidine-4-carboxamide] |
| 0.01 to 0.1 | 0.01 to 0.1 | Cc1cc(Nc2cc(C)[nH]n2)nc(N2CCC(C)(C(=O)NCc3ccccc3)CC2)n1 [Compound 101] |
| < 0.01 | < 0.01 | Cc1cc(Nc2cc(C)[nH]n2)nc(N2CC[C@@H](C(=O)NCc3ccc(-n4cccn4)nc3)[C@@H](O)C2)c1 [Compound 134] |
| < 0.01 | < 0.01 | COC1(C(=O)NCc2ccc(-n3cc(Cl)cn3)nc2)CN(c2nc(C)cc(Nc3cc(C)[nH]n3)n2)C1 [Compound 172] |
| < 0.01 | < 0.01 | COC1(C(=O)NCc2ccc(-n3cc(F)cn3)nc2)CCN(c2cc(C)cc(Nc3cc(C)[nH]n3)n2)CC1 [Compound 193] |
| < 0.01 | < 0.01 | Cc1cc(Nc2cc(C)[nH]n2)nc(N2CC(C(=O)N(C)[C@@H](C)c3ccc(-n4cc(F)cn4)nc3)C2)c1 [Compound 140] |
| < 0.01 | < 0.01 | Cc1cc(Nc2cc(C)[nH]n2)nc(N2CC(F)(C(=O)NCc3ccc(-n4cccn4)nc3)C2)n1 [Compound 112] |
| < 0.01 | < 0.01 | COC1(C(=O)N[C@@H](C)c2ccc(-n3cc(F)cn3)nc2)CCN(c2nccc(Nc3cc(C)[nH]n3)n2)CC1 [Compound 196] |
| < 0.01 | < 0.01 | COC1(C(=O)NCc2ccc(-n3nc(C)cc3C)nc2)CCN(c2nc(C)cc(Nc3cc(C)[nH]n3)n2)CC1 [Compound 215] |
| < 0.01 | < 0.01 | CCC1(C(=O)NCc2ccc(-n3cc(F)cn3)nc2)CCN(c2nc(C)cc(Nc3cc(C)[nH]n3)n2)CC1 [Compound 190] |
| < 0.01 | < 0.01 | COC1(C(=O)N[C@@H](C)c2ccc(-n3cccn3)nc2)CCN(c2cc(C)cc(Nc3cc(C)[nH]n3)n2)CC1 [Compound 181] |
| < 0.01 | < 0.01 | Cc1cc(Nc2cc(C)[nH]n2)nc(N2CCC(O)(C(=O)N[C@@H](C)c3ccc(-n4cc(F)cn4)nc3)CC2)c1 [Compound 192] |
| 0.01 to 0.1 | < 0.01 | COC1(C(=O)NCc2ccc(-n3cc(C)cn3)nc2)CN(c2nc(C)cc(Nc3cc(C)[nH]n3)n2)C1 [Compound 138] |
| < 0.01 | < 0.01 | CCC1(C(=O)NCc2ccc(-n3nc(C)cc3C)nc2)CCN(c2nc(C)cc(Nc3cc(C)[nH]n3)n2)CC1 [Compound 209] |
| < 0.01 | < 0.01 | Cc1cc(Nc2cc(C)[nH]n2)nc(N2CC(C(=O)N[C@@H](C)c3ccc(-n4cc(F)cn4)nc3)C2)n1 [Compound 121] |
| < 0.01 | < 0.01 | Cc1cc(Nc2cc(C)c(C#N)c(N3CC(F)(C(=O)NCc4ccc(-n5cccn5)nc4)C3)n2)n[nH]1 [Compound 128] |
| < 0.01 | < 0.01 | COC1(C(=O)NCc2ccc(-n3cccn3)nc2)CN(c2nc(Nc3cc(C)[nH]n3)cc(C)c2C#N)C1 [Compound 156] |
| < 0.01 | < 0.01 | Cc1cc(Nc2cc(C)[nH]n2)nc(N2CC[C@@H](C(=O)NCc3ccc(-n4cccn4)nc3)[C@H](O)C2)c1 [Compound 133] |
| 0.01 to 0.1 | < 0.01 | CCOc1ccc(CNC(=O)C2(O)CCN(c3cc(C)cc(Nc4cc(C)[nH]n4)n3)CC2)cc1 [Compound 113] |
